The values that follow are results of earlier work, collected in patent US6645930B1, “Clean room wipes for neutralizing caustic chemicals” (EKC Technology, Inc., priority 2000, dated 2003).

For series [1] the following is noted: for pKa3: third ionization constant; for pKa1: first ionization constant.
The conditions of series [2]: at 25° C.

Turning to `O=C(O)CC(O)(CC(=O)O)C(=O)O` [Citric, citric acid], in series [1], the pKa3 is given as 6.9.

`O=C(O)c1cc(O)c(O)c(O)c1` [Gallic, gallic acid]: in series [1], the pKa1 is listed as 4.2 and the pKa3 is given as 8.9. Regarding `O=C(O)[C@H](O)[C@@H](O)[C@H](O)[C@H](O)CO` [Gluconic, gluconic acid], in series [1], the pKa1 is given as 3.5. Besides, the pKa2 in series [1] (second ionization constant) is 4.7.

For `CC(O)CO` (stereo not drawn) [propylene glycol], the vapor pressure in series [2] is 0.02 kPascal.
